Assay results taken from US20080020995A1, “Use of Cyclodextrin Complexes Containing Lipoic Acid” (priority 2004, published 2008).

Experiment: Storage stability test of blend formulation (α-lipoic acid content)
Type: physicochemical
Settings: absence of air and light
Description: First, a blend formulation of the following composition was produced: […]
50 g of creatine monohydrate; 20 g of citric acid; 5.0 g of sodium carbonate; 15 g of sodium bicarbonate; 5.0 g of lemon aroma; 0.5 g of aspartame; 0.5 g of acesulfame K; 4.0 g of magnesium hydroxide
To this blend were added 0.2% by weight of α-lipoic acid and 1.67% by weight of a racemic α-lipoic acid/α-cyclodextrin complex, respectively. The preparations obtained in each case were packaged in the absence of air and light and stored at 20° C. and 40° C.

O=C(O)CCCCC1CCSS1 (racemic) [ALA, 1,2-dithiacyclopentane-3-valeric acid]
α-Lipoic acid content of the blend (20° C., 1 month): 0.19 % by weight
α-Lipoic acid content of the blend (20° C., 2 months): 0.17 % by weight
α-Lipoic acid content of the blend (20° C., 3 months): 0.16 % by weight
α-Lipoic acid content of the blend (20° C., 6 months): 0.14 % by weight
α-Lipoic acid content of the blend (20° C., 9 months): 0.12 % by weight
α-Lipoic acid content of the blend (20° C., 12 months): 0.1 % by weight
α-Lipoic acid content of the blend (40° C., 1 month): 0.16 % by weight
α-Lipoic acid content of the blend (40° C., 2 months): 0.11 % by weight
α-Lipoic acid content of the blend (40° C., 3 months): 0.09 % by weight
α-Lipoic acid content of the blend (40° C., 6 months): 0.06 % by weight
α-Lipoic acid content of the blend (40° C., 9 months): 0.03 % by weight
α-Lipoic acid content of the blend (40° C., 12 months): 0 % by weight
